Converted amounts (≈) assume the structure as drawn. Where a SMILES comes first, the peptide text is derived from it. Bridges are numbered along the chain shown (N, C = ends). [ ]: non-standard residue; d: D form. Bip = N[C@@H](Cc1ccc(-c2ccccc2)cc1)C(=O)O; NMeF = CN[C@@H](Cc1ccccc1)C(=O)O
Tests used:
S. aureus USA300 = test: microbe, parasite or virus in culture; assay type: cell-based
Procedure: (§1) Unless stated otherwise, E. coli cells were grown in Luria-Bertani (LB) medium (0.5% yeast extract, 1% tryptone, 0.5% NaCl) at 37°C. Where indicated, kanamycin (Kan) was added to culture media at a 50-μg/ml final concentration. MIC assays were performed based on Clinical and Laboratory Standards Institute (CLSI) guidelines. For in vitro growth curves, overnight cultures of WT CFT073, CFT073 Δlgt, and CFT073 Δlgt complemented with lgt from E. coli (lgt^Ec) or P. aeruginosa (lgt^Pa) were grown to mid-exponential phase (optical density at 600 nm [OD600] of 0.6) and then diluted to an OD600 of 0.1 to initiate growth curves. At various times, culture aliquots were diluted and plated in dilutions on LB+Kan agar, and CFU were enumerated in duplicates. Growth of MG1655 inducible deletion strains was measured by culturing in the presence of 2-fold dilutions of arabinose (starting arabinose concentrations for CFT073 and MG1655 inducible deletion strains were 4% and 0.8%, respectively). While […] was sufficient for WT growth of MG1655 Δlgt, 4% arabinose was used for CFT073 Δlgt based on comparing its growth to that of WT CFT073 as measured by CFU. OD600 growth measurements were performed using an EnVision 2101 multilabel reader plate reader (PerkinElmer) linked with Echo liquid handler (Labcyte). For time-kill experiments, bacteria were harvested in mid-exponential phase and treated with 12.5 μM G2824, 3.2 μM globomycin, and 1.6 μM vancomycin. CFU were enumerated at various times posttreatment. Bacterial culture medium containing 2% arabinose was used to induce lpp or lppΔK expression from pBad24 plasmids. Bacterial viability at different time points during the treatment was measured by enumerating CFU. Serum killing assays were carried out as previously described ([17]).

A. baumannii 19606 = test: microbe, parasite or virus in culture; assay type: cell-based; conditions: average of two independent experiments in duplicates
Procedure: as §1

[1] = system: A. baumannii 19606 + EDTA; test: microbe, parasite or virus in culture; assay type: cell-based; conditions: average of two independent experiments in duplicates
Procedure: as §1

P. aeruginosa PA14 = test: microbe, parasite or virus in culture; assay type: cell-based; conditions: average of two independent experiments in duplicates
Procedure: as §1

PA14 imp4213 = test: microbe, parasite or virus in culture; assay type: cell-based, P. aeruginosa; conditions: average of two independent experiments in duplicates
Procedure: Bacterial strains and plasmids used in this study are listed in Table S1 in the supplemental material. E. coli strain CFT073 (ATCC 700928) ([62]) and MG1655 (ATCC 700926) were purchased from ATCC. Gene disruption in CFT073 was performed as previously described ([17], [63]). CFT073 Δlgt and MG1655 ΔlspA were generated using λ Red recombination ([17], [63]). Plasmids pKD46 for the λ Red recombinase ([17], [63]), pKD4 or pSim18 for the integration construction ([17], [63]), and pCP20 ([64]) for the FLP recombinase were used in this study. The 3′ primers (Table S2) used to generate the integration construct from pKD4 contain a juxtaposed ribosome binding site downstream of the kanamycin (Kan) cassette to allow for the creation of nonpolar gene deletions within operons ([63]), which is critical when generating the lgt inducible deletion strain given that the ribosomal binding site of the thyA gene downstream of lgt is within the lgt coding region. The inducible deletion strains (MG1655 Δlgt and MG1655 ΔlolCDE) in either the WT and/or Δlpp backgrounds were generated using similar methods as previously described ([17], [65]). To delete lpp in the lgt, lspA, and lolCDE inducible deletion strains, the Kan cassette was removed by transforming the FLP recombinase-expressing pCP20 plasmid followed by deletion of the lpp gene using λ Red recombinase as discussed above. Similar protocols were used to introduce the imp4213 mutant allele. The PA14 imp4213 strain was generated based on published protocols ([66][–][68]). Briefly, the lptD imp4213 mutant allele was generated by PCR amplifying PA14 genomic DNA using primer pairs PA14imp4213_up-F/PA14imp4213_up-R (upstream region) and PA14imp4213_dn-F/PA14imp4213_dn-R (downstream region) to create lptD missing amino acids 425 to 447. PCR products were combined with the PCR-amplified vector pEX18gm with primers pLMG18_GA-F/pLMG18_GA-R and assembled using Gibson assembly (NEB). The resultant suicide vector pEX18gm was confirmed by sequence analysis (ELIM Biopharm). […]
Unless stated otherwise, E. coli cells were grown in Luria-Bertani (LB) medium (0.5% yeast extract, 1% tryptone, 0.5% NaCl) at 37°C. […] Growth of MG1655 inducible deletion strains was measured by culturing in the presence of 2-fold dilutions of arabinose (starting arabinose concentrations for CFT073 and MG1655 inducible deletion strains were 4% and 0.8%, respectively). While 2% arabinose was sufficient for WT growth of MG1655 Δlgt, 4% arabinose was used for CFT073 Δlgt based on comparing its growth to that of WT CFT073 as measured by CFU. OD600 growth measurements were performed using an EnVision 2101 multilabel reader plate reader (PerkinElmer) linked with Echo liquid handler (Labcyte). […]

CFT073 imp4213 Δlpp = test: Time-kill, CFT073 imp4213 versus CFT073 imp4213 Δlpp; assay type: cell-based, E. coli; conditions: 12.5 μM G2824, 3.2 μM globomycin or 1.6 μM vancomycin, CFU, two independent experiments in triplicates
Procedure: To compare the rate of bactericidal killing of G2824 with that of globomycin, we treated CFT073 imp4213 and CFT073 imp4213 Δlpp cells with G2824 and globomycin at 2× MIC of the respective inhibitors against CFT073 imp4213 and enumerated viable CFU counts.
Unless stated otherwise, E. coli cells were grown in Luria-Bertani (LB) medium (0.5% yeast extract, 1% tryptone, 0.5% NaCl) at 37°C. Where indicated, kanamycin (Kan) was added to culture media at a 50-μg/ml final concentration. MIC assays were performed based on Clinical and Laboratory Standards Institute (CLSI) guidelines. […] Growth of MG1655 inducible deletion strains was measured by culturing in the presence of 2-fold dilutions of arabinose (starting arabinose concentrations for CFT073 and MG1655 inducible deletion strains were 4% and 0.8%, respectively). While 2% arabinose was sufficient for WT growth of MG1655 Δlgt, 4% arabinose was used for CFT073 Δlgt based on comparing its growth to that of WT CFT073 as measured by CFU. OD600 growth measurements were performed using an EnVision 2101 multilabel reader plate reader (PerkinElmer) linked with Echo liquid handler (Labcyte). […] Bacterial viability at different time points during the treatment was measured by enumerating CFU. […]

[2] = S. aureus USA300, average of two independent experiments in duplicates

Row | SMILES | MIC (S. aureus USA300; [2]) [µM] | MIC (A. baumannii 19606) [µM] | MIC [1] [µM] | MIC (P. aeruginosa PA14) [µM] | MIC (PA14 imp4213) [µM] | effect of lpp deletion on bactericidal killing (CFT073 imp4213 Δlpp) | MIC (S. aureus USA300; Staphylococcus aureus, USA300) [µM] | MIC (A. baumannii 19606; Acinetobacter baumannii) [µM] | MIC ([1]; Acinetobacter baumannii) [µM] | MIC (P. aeruginosa PA14; Pseudomonas aeruginosa) [µM] | MIC (PA14 imp4213; Pseudomonas aeruginosa) [µM]
1 | CN1C(=O)[C@H](Cc2ccc(-c3ccccc3)cc2)NC(=O)CNC(=O)[C@H](CC(=O)O)NC(=O)[C@@H](Cc2ccccc2)NC(=O)CSC[C@@H](C(=O)NCC(=O)N[C@@H](CCCCN)C(=O)N[C@@H](CCCCN)C(N)=O)NC(=O)[C@H](CCCNC(=N)N)NC(=O)[C@H](CO)NC(=O)[C@H](Cc2ccc(-c3ccccc3)cc2)NC(=O)[C@@H]1Cc1ccccc1 [G2824] ({CH2CO}-[dF]DG[Bip][NMeF][Bip]SRCGKK-NH2; thioether N-9) | >100 | 37.5 (≈ 61.6 µg/mL) | 6.3 (≈ 10.4 µg/mL) | >100 | 6.3 | – | – | – | – | – | –
2 | CN1C(=O)[C@H](Cc2ccc(-c3ccccc3)cc2)NC(=O)CNC(=O)[C@H](CCCNC(=N)N)NC(=O)[C@@H](Cc2ccccc2)NC(=O)CSC[C@@H](C(=O)NCC(N)=O)NC(=O)[C@H](CCCNC(=N)N)NC(=O)[C@H](CO)NC(=O)[C@H](Cc2ccc(-c3ccccc3)cc2)NC(=O)[C@@H]1Cc1ccccc1 [G9066] ({CH2CO}-[dF]RG[Bip][NMeF][Bip]SRCG-NH2; thioether N-9) | 6.3 (≈ 9 µg/mL) | 37.5 (≈ 53.6 µg/mL) | 3.1 (≈ 4.43 µg/mL) | >100 | 6.3 | – | – | – | – | – | –
3 | CCCCCC[C@H]1OC(=O)CNC(=O)[C@H]([C@H](C)O)NC(=O)[C@H](CO)NC(=O)[C@H]([C@H](C)CC)NC(=O)[C@H](CC(C)C)N(C)C(=O)[C@@H]1C [Globomycin] | >100 | 25 (≈ 16.4 µg/mL) | 0.6 (≈ 0.394 µg/mL) | >100 | 50 | lost in the absence of lpp | – | – | – | – | –
4 | CN[C@H](CC(C)C)C(=O)N[C@H]1C(=O)N[C@@H](CC(N)=O)C(=O)N[C@H]2C(=O)N[C@H]3C(=O)N[C@H](C(=O)N[C@H](C(=O)O)c4cc(O)cc(O)c4-c4cc3ccc4O)[C@H](O)c3ccc(c(Cl)c3)Oc3cc2cc(c3O[C@@H]2O[C@H](CO)[C@@H](O)[C@H](O)[C@H]2O[C@H]2C[C@](C)(N)[C@H](O)[C@H](C)O2)Oc2ccc(cc2Cl)[C@H]1O [Vancomycin] | – | – | – | – | – | equivalent killing of CFT073 imp4213 and CFT073 imp4213 Δlpp at 5 h posttreatment | 0.4 (≈ 0.58 µg/mL) | > 100 | 0.2 (≈ 0.29 µg/mL) | > 100 | 12.5
